Test results reported in PMC2885673, “Interaction of triosephosphate isomerase from the cell surface of Staphylococcus aureus and α-(1→3)-mannooligosaccharides derived from glucuronoxylomannan of Cryptococcus neoformans” (Microbiology, 2009).

Tests used:
[1] = molecular target: T1, triosephosphate isomerase (TPI) from S. aureus (Staphylococcus aureus, UniProt Q2G030); experiment: SPR (Biacore […]), TPI immobilized, heterogeneous ligand-parallel reaction fit; format: binding; conditions: HBS-EP pH 7.4, 150 mM NaCl, 3 mM EDTA; second site of a two-site fit (stronger site)
T1 construct: gene tpiA; native, purified from LiCl surface protein extract; 253 amino acids (homology model); amine-coupled to CM5 chip for SPR
T1 sequence (Q2G030 whole entry): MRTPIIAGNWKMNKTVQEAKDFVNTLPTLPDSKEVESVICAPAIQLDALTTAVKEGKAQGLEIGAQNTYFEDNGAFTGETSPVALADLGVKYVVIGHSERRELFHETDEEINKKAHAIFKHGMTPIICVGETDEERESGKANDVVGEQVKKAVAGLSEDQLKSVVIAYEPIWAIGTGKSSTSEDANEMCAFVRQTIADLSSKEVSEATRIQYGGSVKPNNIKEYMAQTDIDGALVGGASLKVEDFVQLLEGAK

[2] = molecular target: T1, triosephosphate isomerase (TPI) from S. aureus; experiment: coupled NADH / glycerol-3-phosphate dehydrogenase assay, A340; format: biochemical; conditions: 0.45 mM DL-glyceraldehyde 3-phosphate; S. aureus surface protein extract per the assay description

`OC[C@H]1O[C@H](O[C@@H]2[C@H](O)[C@@H](O[C@@H]3[C@H](O)[C@@H](O[C@H]4[C@H](O)[C@@H](CO)OC(O)[C@H]4O)O[C@H](CO)[C@H]3O)O[C@H](CO)[C@H]2O)[C@@H](O)[C@@H](O)[C@@H]1O` (stereo partly shown) [M4, mannotetraose] was tested, and the “Heterogeneous ligand-parallel reaction / Kd2” value [1] was 0.0146 µM and the “inhibition of TPI activity at 100 μM” value [2] was “dose-dependent inhibition was observed with mannotriose, mannotetraose and mannopentaose”.

With `OC[C@H]1O[C@H](O[C@H]2[C@H](O)[C@@H](CO)OC(O)[C@H]2O)[C@@H](O)[C@@H](O)[C@@H]1O` (stereo partly shown) [M2, mannobiose] the “Heterogeneous ligand-parallel reaction / Kd2” value [1] was 5.37 µM.

With `OC[C@H]1O[C@H](O[C@@H]2[C@H](O)[C@@H](O[C@H]3[C@H](O)[C@@H](CO)OC(O)[C@H]3O)O[C@H](CO)[C@H]2O)[C@@H](O)[C@@H](O)[C@@H]1O` (stereo partly shown) [M3, mannotriose] the “Heterogeneous ligand-parallel reaction / Kd2” value [1] was 124 µM and the “inhibition of TPI activity at 100 μM” value [2] was “dose-dependent inhibition was observed with mannotriose, mannotetraose and mannopentaose”.

For `OC[C@H]1O[C@H](O[C@@H]2[C@H](O)[C@@H](O[C@@H]3[C@H](O)[C@@H](O[C@@H]4[C@H](O)[C@@H](O[C@H]5[C@H](O)[C@@H](CO)OC(O)[C@H]5O)O[C@H](CO)[C@H]4O)O[C@H](CO)[C@H]3O)O[C@H](CO)[C@H]2O)[C@@H](O)[C@@H](O)[C@@H]1O` (stereo partly shown) [M5, mannopentaose], the “Heterogeneous ligand-parallel reaction / Kd2” value [1] was 18.6 µM and the “inhibition of TPI activity at 100 μM” value [2] was “dose-dependent inhibition was observed with mannotriose, mannotetraose and mannopentaose”.
